Several values for one entry are separate records, joined by “and”; a condition that tells them apart may be missing. Identical values can stand only once. Activity calls are given as the source filed them.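 The calls were made as follows: active = fitted curve reaching 40% activation at or below the sample's highest valid tested dose; inconclusive = flat fit between 30% and 70%, or poor fit; inactive = the rest, including opposite-direction activity.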
Target: Kelch-like ECH-associated protein 1 (Homo sapiens) + Nuclear factor erythroid 2-related factor 2 (Homo sapiens) (UniProt Q14145+Q16236)
Test: Nrf2 nuclear translocation activators in cells, dose response, orthogonal assay for Keap1-Nrf2 interaction inhibitor project, PathHunter, U2OS cells, dry powder (AID 651833)
Settings: beta-gal luminescence, 3 h

Chain of Kelch-like ECH-associated protein 1 (Homo sapiens) + Nuclear factor erythroid 2-related factor 2 (Homo sapiens) (Q14145 whole entry, looked up): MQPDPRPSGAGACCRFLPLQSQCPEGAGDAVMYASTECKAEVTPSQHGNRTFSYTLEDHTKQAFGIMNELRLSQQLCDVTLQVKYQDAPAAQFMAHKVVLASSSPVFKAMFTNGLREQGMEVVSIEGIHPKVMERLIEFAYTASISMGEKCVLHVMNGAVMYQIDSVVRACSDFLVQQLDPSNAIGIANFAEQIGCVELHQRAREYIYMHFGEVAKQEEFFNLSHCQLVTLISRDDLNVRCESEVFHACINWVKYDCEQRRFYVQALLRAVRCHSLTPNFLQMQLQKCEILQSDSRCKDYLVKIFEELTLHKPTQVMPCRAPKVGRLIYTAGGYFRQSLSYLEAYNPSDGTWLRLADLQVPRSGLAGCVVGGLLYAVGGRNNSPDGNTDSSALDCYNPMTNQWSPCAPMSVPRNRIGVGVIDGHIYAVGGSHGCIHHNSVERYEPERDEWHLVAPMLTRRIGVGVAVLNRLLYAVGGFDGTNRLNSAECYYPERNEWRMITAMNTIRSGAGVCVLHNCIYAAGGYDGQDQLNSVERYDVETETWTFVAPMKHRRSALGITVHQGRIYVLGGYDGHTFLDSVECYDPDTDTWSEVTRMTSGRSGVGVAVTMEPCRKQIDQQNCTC
Chain of Kelch-like ECH-associated protein 1 (Homo sapiens) + Nuclear factor erythroid 2-related factor 2 (Homo sapiens) (Q16236 whole entry, looked up): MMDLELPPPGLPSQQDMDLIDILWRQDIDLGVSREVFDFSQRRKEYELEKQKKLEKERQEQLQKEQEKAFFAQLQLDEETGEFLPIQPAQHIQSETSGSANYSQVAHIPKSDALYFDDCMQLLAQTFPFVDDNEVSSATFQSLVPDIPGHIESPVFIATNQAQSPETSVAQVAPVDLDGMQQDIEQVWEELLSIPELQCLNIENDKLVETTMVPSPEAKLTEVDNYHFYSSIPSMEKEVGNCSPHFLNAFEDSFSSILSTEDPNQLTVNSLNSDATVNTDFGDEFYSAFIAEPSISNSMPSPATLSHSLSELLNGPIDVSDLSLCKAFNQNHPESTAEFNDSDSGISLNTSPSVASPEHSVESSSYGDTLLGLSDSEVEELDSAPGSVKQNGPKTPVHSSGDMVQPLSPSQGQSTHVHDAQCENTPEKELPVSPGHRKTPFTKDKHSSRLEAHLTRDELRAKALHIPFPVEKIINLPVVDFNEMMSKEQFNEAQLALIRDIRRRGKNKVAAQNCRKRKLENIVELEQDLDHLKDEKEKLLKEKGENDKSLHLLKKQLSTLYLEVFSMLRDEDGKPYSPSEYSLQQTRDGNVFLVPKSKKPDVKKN

AC40 | Structure (SMILES)
4.21 µM | COC(=O)C(C(=O)OC)c1cc(NS(=O)(=O)c2c(C)cc(C)cc2C)c2ccccc2c1O
6.97 µM | Cc1ccccc1S(=O)(=O)Nc1cc(C(C(=O)OC(C)C)C(=O)C(F)(F)F)c(O)c2ccccc12 (configuration not stated)
20 µM | CC(C)OC(=O)C(C(=O)C(F)(F)F)c1cc(NS(=O)(=O)c2ccccc2)c2ccccc2c1O (configuration not stated)
1.1 µM | Cc1cc(C)c(S(=O)(=O)Nc2cc(C(C(=O)OC(C)C)C(=O)C(F)(F)F)c(O)c3ccccc23)c(C)c1 (configuration not stated)
> 38 µM (inactive) | O=C(O)Cc1ccccc1C(=O)N1CCc2ccccc2[C@H]1CN1C(=O)c2ccccc2C1=O
> 38 µM (inactive) | Cc1ccc(S(=O)(=O)NC2=CC(=N[C@@H](C)C(=O)OC(C)(C)C)C(=O)c3ccccc32)c(C)c1
30 µM | O=C(Oc1cc(CN2C(=O)c3ccccc3C2=O)c2ccccc2[n+]1[O-])c1cccc(Cl)c1
> 38 µM (inactive) | O=C(NC[C@@H]1c2ccccc2CCN1C(=O)[C@@H]1CCCC[C@@H]1C(=O)O)c1ccc(CCl)cc1
12.1 µM | Cc1ccc(S(=O)(=O)Nc2cc(C(C(=O)OC(C)C)C(=O)C(F)(F)F)c(O)c3ccccc23)cc1 (configuration not stated)
27.2 µM | CC(=O)Nc1cc(NS(=O)(=O)c2c(C)cc(C)cc2C)c2ccccc2c1O
> 38 µM (inactive) | Cc1cc(C)c(S(=O)(=O)Nc2nc(C(C(=O)OC(C)C)C(=O)C(F)(F)F)nc3ccccc23)c(C)c1 (configuration not stated)
> 38 µM (inactive) | O=C(O)C1CCCCC1C(=O)N1CCc2ccccc2C1CN1Cc2ccccc2C1=O (configuration not stated)
18.5 µM | Cc1ccc(S(=O)(=O)NNc2nc(C(C(=O)OC(C)C)C(=O)C(F)(F)F)nc3ccccc23)cc1 (configuration not stated)
5.12 µM | Cc1ccc(S(=O)(=O)Nc2cc(C(C(=O)OC(C)C)C(=O)C(F)(F)F)c(O)c3ccccc23)c(C)c1 (configuration not stated)
> 38 µM (inactive) | O=C(NC[C@@H]1c2ccccc2CCN1C(=O)[C@@H]1CCCC[C@@H]1C(=O)O)OCC1c2ccccc2-c2ccccc21
> 38 µM (inactive) | O=C(NC[C@@H]1c2ccccc2CCN1C(=O)[C@@H]1CCCC[C@@H]1C(=O)O)c1ccccc1
> 38 µM (inactive) | O=C(O)[C@H]1C2C=CC(C2)[C@H]1C(=O)N1CCc2ccccc2C1CN1C(=O)c2ccccc2C1=O (some centres not stated)
> 38 µM (inactive) | Cc1ccc(S(=O)(=O)NNc2nc(N3CC(O)CC3C(=O)O)nc3ccccc23)cc1 (configuration not stated)

Same assay, conditions: beta-gal luminescence, 3 h, at 10 µM (top of the series)

activation | Structure (SMILES)
-2.75% (inactive) | O=C1c2ccccc2C(=O)N1CC1c2ccccc2CCN1C(=O)Cc1ccccc1 (configuration not stated)

Same assay, conditions: beta-gal luminescence, 3 h, at 38 µM (top of the series)

activation | Structure (SMILES)
3.36% (inactive) | Cc1cc(C)c(S(=O)(=O)Nc2nc(NCCO)nc3ccccc23)c(C)c1
6.37% (inactive) | O=C(O)[C@H]1CCCC[C@H]1C(=O)N1CCc2ccccc2[C@H]1CNS(=O)(=O)c1ccc([N+](=O)[O-])cc1
0.849% (inactive) | O=C(O)C1CCCCC1C(=O)N1CCc2ccccc2[C@H]1C(=O)NCCc1ccccc1 (some centres not stated)
8.62% (inactive) | CCOC(=O)Cc1nc(NS(=O)(=O)c2c(C)cc(C)cc2C)c2ccccc2n1
-0.662% (inactive) | O=C(O)[C@H]1CCCC[C@H]1C(=O)N1CCc2ccccc2C1 (racemic)
0.733% (inactive) | O=C1c2ccccc2C(=O)N1C[C@@H]1c2ccccc2CCN1C(=O)C1CCCCC1
-1.8% (inactive) | C[C@@H](NC(=O)C1CCCC[C@H]1C(=O)O)c1ccccc1 (mixture of isomers)
7.06% (inactive) | CC(C)CNc1nc(NS(=O)(=O)c2ccccc2)c2ccccc2n1
5.41% (inactive) | O=C(O)[C@@H]1CCCN1C(=O)N1CCc2ccccc2[C@H]1CN1C(=O)c2ccccc2C1=O
0.036% (inactive) | O=C(O)C1CCCCC1C(=O)NCC1c2ccccc2CCN1C(=O)Cc1ccccc1 (configuration not stated)
-2.53% (inactive) | O=C(O)C1CCCCC1C(=O)N1CCc2ccccc2C1c1ccccc1 (configuration not stated)
2.9% (inactive) | Cc1cc(C)c(S(=O)(=O)Nc2ncnc3ccccc23)c(C)c1
4.09% (inactive) | O=C(NCCO)c1ccccc1C(=O)NC[C@@H]1c2ccccc2CCN1C(=O)C1CCCCC1C(=O)O (some centres not stated)
4.38% (inactive) | O=C(O)C1CCCCC1C(=O)N1CCc2ccccc2C1CN1C(=O)[C@H]2CCCC[C@H]2C1=O (some centres not stated)
13% (inactive) | O=C(O)/C=C\C(=O)N1CCc2ccccc2C1CN1C(=O)c2ccccc2C1=O (configuration not stated)
-2.36% (inactive) and -1.69% (inactive) | COc1ccccc1CCNC(=O)[C@@H]1c2ccccc2CCN1C(=O)C1CCCCC1C(=O)O (some centres not stated)
8.47% (inactive) | O=C(O)C1CCCCC1C(=O)N1CCc2ccccc2C1CN1C(=O)Cc2ccccc2C1=O (configuration not stated)
-2.72% (inactive) | COC(=O)[C@@H]1CCCC[C@@H]1C(=O)N1CCc2ccccc2[C@H]1CN1C(=O)c2ccccc2C1=O
-2.67% (inactive) | O=C1c2ccccc2C(=O)N1C[C@H]1NCCc2ccccc21
-2.15% (inactive) | COC(=O)[C@@H]1CCCC[C@@H]1C(=O)N1CCc2ccccc2[C@@H]1CN1C(=O)c2ccccc2C1=O

activation | Structure (SMILES)
0.179% (inactive) | O=C(O)c1ccccc1C(=O)NC[C@@H]1c2ccccc2CCN1C(=O)[C@@H]1CCCC[C@@H]1C(=O)O
-4.29% (inactive) | C[C@H](NC(=O)C1CCCC[C@H]1C(=O)O)c1ccccc1 (mixture of isomers)
-2.72% (inactive) | O=C(O)C1CCCCC1C(=O)Nc1ccccc1CN1C(=O)c2ccccc2C1=O (configuration not stated)
5.19% (inactive) | COc1ccc(CCN=C2C=C(NS(=O)(=O)c3c(C)cc(C)cc3C)c3ccccc3C2=O)cc1
1.45% (inactive) | O=C1c2ccccc2C(=O)N1C[C@@H]1c2ccccc2CCN1C(=O)OCc1ccccc1
4.54% (inactive) | O=C(O)c1ccccc1C(=O)N1CCc2ccccc2C1CN1C(=O)c2ccccc2C1=O (configuration not stated)
-0.067% (inactive) | O=C1c2ccccc2C(=O)N1CC1=NCCc2ccccc21
1.36% (inactive) | O=C(O)CCC(=O)N1CCc2ccccc2C1CN1C(=O)c2ccccc2C1=O (configuration not stated)
4.66% (inactive) | Cc1ccc(S(=O)(=O)NC[C@@H]2c3ccccc3CCN2C(=O)[C@@H]2CCCC[C@@H]2C(=O)O)c(C)c1
4.54% (inactive) | NC(=O)[C@H]1CCCC[C@H]1C(=O)N1CCc2ccccc2[C@H]1CN1C(=O)c2ccccc2C1=O
5.09% (inactive) | O=C(NCCc1ccccc1)c1ccccc1C(=O)NC[C@@H]1c2ccccc2CCN1C(=O)C1CCCCC1C(=O)O (some centres not stated)
6.26% (inactive) | O=C(Cc1ccccc1)NC[C@@H]1c2ccccc2CCN1C(=O)[C@@H]1CCCC[C@@H]1C(=O)O
11% (inactive) and -0.217% (inactive) | O=C(O)[C@H]1CCCC[C@H]1C(=O)N1CCC2=C(CCCC2)C1CN1C(=O)c2ccccc2C1=O (some centres not stated)
1.28% (inactive) | CCOC(=O)C(C(=O)OCC)c1nc(NS(=O)(=O)c2c(C)cc(C)cc2C)c2ccccc2n1
-1.98% (inactive) | O=C(O)[C@H]1CCCC[C@H]1C(=O)NC(CN1C(=O)c2ccccc2C1=O)c1ccccc1 (some centres not stated)
6.96% (inactive) | C=CC(=O)NC[C@@H]1c2ccccc2CCN1C(=O)[C@@H]1CCCC[C@@H]1C(=O)O
2.02% (inactive) | Cc1cc(C)c(S(=O)(=O)Nc2nc(N(C)C)nc3ccccc23)c(C)c1
13.7% (inactive) | O=C(O)C1CCCCC1C(=O)N1CCc2ccccc2C1CN1C(=O)c2ccccc2S1(=O)=O (configuration not stated)
8.88% (inactive) | NC(=O)c1ccccc1C(=O)NC[C@@H]1c2ccccc2CCN1C(=O)[C@@H]1CCCC[C@@H]1C(=O)O
5.4% (inactive) | O=C(O)[C@H]1CCCC[C@H]1C(=O)N1CCc2ccccc2[C@H]1CNc1nc(Cl)nc2ccccc12

activation | Structure (SMILES)
2.73% (inactive) | O=C(O)CC(=O)N1CCc2ccccc2C1CN1C(=O)c2ccccc2C1=O (configuration not stated)
1.4% (inactive) | CCOC(=O)C(C(=O)OCC)c1cc(CNS(=O)(=O)c2ccc(C)cc2C)c2ccccc2n1
3% (inactive) | Cc1ccc(S(=O)(=O)NNc2nc(NCC(N)=O)nc3ccccc23)cc1
3.41% (inactive) | O=C(O)CCCC(=O)N1CCc2ccccc2C1CN1C(=O)c2ccccc2C1=O (configuration not stated)
-2.1% (inactive) | COC(=O)[C@H]1CCCC[C@H]1C(=O)N1CCc2ccccc2[C@H]1CN1C(=O)c2ccccc2C1=O
2.2% (inactive) | O=C(NC[C@@H]1c2ccccc2CCN1C(=O)[C@@H]1CCCC[C@@H]1C(=O)O)c1ccccc1CO
3.66% (inactive) | COC(=O)CNc1nc(NS(=O)(=O)c2c(C)cc(C)cc2C)c2ccccc2n1
0.812% (inactive) and -0.193% (inactive) | O=C(O)[C@H]1CCCC[C@H]1C(=O)N1CCc2ccccc2C1CCN1C(=O)c2ccccc2C1=O (some centres not stated)
7.86% (inactive) | O=C(O)[C@H]1CCCC[C@H]1C(=O)N1CCc2ccccc2[C@H]1CNS(=O)(=O)c1ccccc1
3.97% (inactive) | O=S(=O)(Nc1nc(NCC2CCCCC2)nc2ccccc12)c1ccccc1
1.27% (inactive) | COC(=O)C1CCCCC1C(=O)N1CCc2ccccc2C1CN1C(=O)c2ccccc2C1=O (configuration not stated)
6.05% (inactive) and 8.58% (inactive) | Cc1ccc(S(=O)(=O)NC(=O)[C@@H]2c3ccccc3CCN2C(=O)[C@@H]2CCCC[C@@H]2C(=O)O)cc1
-1.78% (inactive) | O=C(O)C1CCCCC1C(=O)N1CCCCC1CN1C(=O)c2ccccc2C1=O (configuration not stated)
9.41% (inactive) | CCOC(=O)C(C(=O)OCC)c1cc(CN2C(=O)c3ccccc3C2=O)c2ccccc2n1
5.34% (inactive) | Cc1cc(C)c(S(=O)(=O)Nc2cc(C(C(=O)OCc3ccccc3)C(=O)OCc3ccccc3)c(O)c3ccccc23)c(C)c1
-2.47% (inactive) | O=C(O)C1CCCCC1C(=O)N1CCc2ccccc2[C@H]1C(=O)NC12CC3CC(CC(C3)C1)C2 (some centres not stated)
4.62% (inactive) | O=C(NCCCN1CCOCC1)c1ccccc1C(=O)NC[C@@H]1c2ccccc2CCN1C(=O)C1CCCCC1C(=O)O (some centres not stated)
2.86% (inactive) | O=C(NC[C@@H]1c2ccccc2CCN1C(=O)[C@@H]1CCCC[C@@H]1C(=O)O)c1ccc(CN2CCOCC2)cc1

— PubChem BioAssay AID651833 (Broad Institute, 2012)
